Source: US20150094310A1, “CRHR1 ANTAGONISTS FOR USE IN THE TREATMENT OF PATIENTS HAVING CRH OVERACTIVITY” (HOLSBOERMASCHMEYER NEUROCHEMIE GMBH, priority 2012, published 2015)

Legend:
Cor26 CRH mice = assay: REMS levels by EEG/EMG recording in Cor26 CRH mice and control littermates; conditions: for REMS activity / REMS levels: CRH-overexpressing Cor26 CRH mice, 50 mg/kg/d via drinking water
Protocol: (§1) Experiments were conducted with two different mouse lines of excessive central CRH secretion and their respective control littermates (CL). Mice of the CRH-COE^CNS line are characterised by CRH-overexpression within the whole CNS, whereas mice of the Cor26 CRH line display a CRH-overexpression specific to CRH-ergic neurons of the CNS. Three different CRHR1 antagonists were tested. […] In all cases, animals were left to recover from EEG/EMG-electrode implantation for two weeks, after which two days of baseline recording were initiated. Treatment with CRH-R1 antagonist or respective vehicle control commenced thereafter for five consecutive days. Antagonists were applied through the drinking water at a daily dose of 50 mg/kg body weight. EEG and EMG recordings were manually scored as wake, non-REMS (NREMS), and REMS in four second epochs by an experienced evaluator.

CRH-COE^CNS mice = assay: REMS activity by EEG/EMG recording in CRH-COE^CNS mice and control littermates; conditions: for REMS activity: treatment days vs baseline
Protocol: as §1

[1] = test system: mice overexpressing CRH in the forebrain; conditions: cited from earlier work

Structure (SMILES) | REMS activity / REMS levels (Cor26 CRH mice; 50 mg/kg/day) | REMS activity / REMS levels (Cor26 CRH mice; listed as CP-316311, 50 mg/kg/day) | REMS levels, area under the curve (AUC) within the light period (Cor26 CRH mice; Cor26 CRH mice, baseline vs treatment day three, P=0.006) | REMS activity in control littermates (CRH-COE^CNS mice; CL (control) mice, 50 mg/kg/d via drinking water) | treatment day of strongest suppression of REMS activity (CRH-COE^CNS mice; CRH-COE^CNS mice, 50 mg/kg/d) | REMS activity (CRH-COE^CNS mice; CRH-COE^CNS mice, 50 mg/kg/d via drinking water, 50 mg/kg/day) | REMS activity (CRH-COE^CNS mice; CRH-COE^CNS mice, 50 mg/kg/d via drinking water, listed as DMP696, 50 mg/kg/day) | REM enhancement [1]
CCC(CC)Oc1cc(C)nc(Oc2c(C)cc(C)cc2C)c1C [CP-316,311] | apparently seemed weak | suppressed | significant decrease | – | – | – | – | –
COCC(COC)Nc1nc(C)nc2c(-c3ccc(Cl)cc3Cl)c(C)nn12 [DMP-696] | – | – | – | only a mild suppression of REMS | treatment day three | significant decrease in REMS activity | suppressed | could reverse the REM enhancement
